For assay [1], the system named is Trialeurodes vaporariorum. Briefly: Insecticidal activity against Trialeurodes vaporariorum in bean plant leaf up to 50 days by glasshouse method. Type of assay: functional, organism-based.
The subject of assay [2] is Trialeurodes vaporariorum. Briefly: Insecticidal activity against Trialeurodes vaporariorum in ten-leaf stage of bean plant after 10 to 35 days. Type of assay: functional, organism-based.

Calls of active or inactive are those of the source. The rule behind the calls is not given here.

Regarding `CC(COc1ccc(Oc2ccccc2)cc1)Oc1ccccn1` (racemic), the result in assay [1] and in assay [2] was Active.

The values are drawn from ChEMBL document CHEMBL3045738, “Control of Greenhouse Whitefly (Trialeurodes vaporariorum) Using Visually Attractive Targets Impregnated with Pyriproxyfen” (J Pestic Sci, 2005).
